Reference: EP0597838B1, “VACCINE COMPOSITIONS” (NORTH AMERICAN VACCINE, INC., priority 1990, dated 1991)
Counter-ions that a name gives are not always drawn.

Assays:
[1] = system: hepatitis B surface antigen; test: Antibody response to hepatitis B surface antigen with octadecyl amino acid immunoadjuvants, radioimmunoassay of sera; format: in vivo, BALB/c mice; conditions: 50 ng HBsAg i.m. day 1, boost 35 ng day 21, 100 µg octadecyl amino acid
Method: (§1) BALB/c mice were immunized with 50 ng of hepatitis B surface antigen in the presence of adjuvant for the non-control mice and in the absence of adjuvant for the control mice. The hepatitis B surface antigen was obtained from 3T3 cells transfected with the gene for the surface antigen. 100 µg of octadecyl amino acid was complexed with the polypeptide as described in Example 2. This mixture, in a total volume of 0.1 ml, was injected on day 1 using an intramuscular route, and the mice were bled on days 7, 14, 21, 28, 35, 42 and 61. The mice were boosted with 35 ng of the polypeptide on day 21.
(§2) The antibody concentration in the sera was determined by radioimmunoassay. The antibody concentration was estimated by comparison with a standard curve obtained using a monoclonal antibody.

[2] = system: hepatitis B surface antigen; test: Antibody response to hepatitis B surface antigen as a function of octadecyl tyrosine dose, radioimmunoassay of sera; format: in vivo, BALB/c mice; conditions: 80 ng HBsAg, boost 50 ng, pre-bleed value 11.5
Method: as §1, §2
The immunizations were carried out in the presence of adjuvant for the non-control mice and in the absence of adjuvant for the control mice.

[3] = system: HIV-1 polypeptide, residues 503-535; test: Antibody response to HIV-1 polypeptide 503-535 coupled to KLH in mice, radioimmunoassay of sera; format: in vivo, BALB/c mice; conditions: 100 µg polypeptide-KLH on day 1 and day 21
Method: 1) HIV Peptide Sequence The peptide sequence of the HIV was as follows. Product: BC-101 503- H-[…] 535 M.W. 3585.14 (Back-bone) 2) Experiments in mice BALB/c mice were immunized with 100 µg of chemically synthesized polypeptide, corresponding to the amino acid sequence of residues 503-535 of HIV-1, coupled to Keyhole Limpet Hemocyanin (KLH). Octadecyl tyrosine hydro-chloride, 10 µg-100 µg, was complexed with the polypeptide as described in Example 2. This mixture, in a total volume of 0.1 ml, was injected on day 1, and again on day 21. The mice were bled on days 7, 14, 21, 28 and 35. The antibody concentration in the sera was determined by radioimmunoassay. The antibody concentration was estimated by comparison with a standard curve obtained using a polyclonal antibody.

[4] = system: hepatitis B surface antigen; test: Isotype of the anti-hepatitis B surface antigen antibody response, radioimmunoassay with tritium labelled anti-mouse isotype antibody; format: in vivo, mice; conditions: for IgE, radioactivity of bound isotype antibody / IgG1, radioactivity of bound isotype antibody / IgG2a, radioactivity of bound isotype antibody / IgG2b, radioactivity of bound isotype antibody / IgG3, radioactivity of bound isotype antibody / IgM, radioactivity of bound isotype antibody: immunization on day 1 and 21, 50 µg of octadecyl tyrosine
Method: The protocol was as described in Example 5, Section 2 (mice) except that 50 µg of octadecyl tyrosine was used for both the primary and secondary (day 21) immunizations. The isotype of the antibody response was determined by radioimmunoassay. Use was made of tritium labelled anti-mouse isotype antibody. Titration was undertaken by incubation of samples on plates coated with immunoaffinity purified hepatitis B surface antigen.

[5] = system: hepatitis B surface antigen; test: Antibody response to hepatitis B surface antigen as a function of octadecyl tyrosine dose, radioimmunoassay of sera; format: in vivo, BALB/c mice; conditions: day 21, 80 ng HBsAg, boost 50 ng, pre-bleed value 11.5
[6] = C.L. Penney et al, Vaccine 4, 1986; cited from earlier work

**Q.** Which results are given for `CCCCCCCCCCCCCCCCCCOC(=O)C(N)Cc1ccc(O)cc1` (centres unmarked) [Octadecyl Tyrosine, octadecyl tyrosine hydrochloride]?
**A.** Anti-HBsAg antibody concentration ([1]; day 7): 68 ng/mL; Anti-HBsAg antibody concentration ([1]; day 14): 91 ng/mL; Anti-HBsAg antibody concentration ([1]; day 21): 58 ng/mL; Anti-HBsAg antibody concentration ([1]; day 28): 355 ng/mL; Anti-HBsAg antibody concentration ([1]; day 35): 833 ng/mL; Anti-HBsAg antibody concentration ([1]; day 61): 752 ng/mL; Antibody response to hepatitis B surface antigen ([2]; 10 µg adjuvant, day 7): 611 CPM; Antibody response to hepatitis B surface antigen ([2]; 10 µg adjuvant, day 14): 2314 CPM; Antibody response to hepatitis B surface antigen ([2]; 10 µg adjuvant, day 28): 8403 CPM; Antibody response to hepatitis B surface antigen ([2]; 10 µg adjuvant, day 35): 10005 CPM; Antibody response to hepatitis B surface antigen ([2]; 50 µg adjuvant, day 7): 2064 CPM; Antibody response to hepatitis B surface antigen ([2]; 50 µg adjuvant, day 14): 846 CPM; Antibody response to hepatitis B surface antigen ([2]; 50 µg adjuvant, day 28): 18804 CPM; Antibody response to hepatitis B surface antigen ([2]; 50 µg adjuvant, day 35): 20616 CPM; Antibody response to hepatitis B surface antigen ([2]; 100 µg adjuvant, day 7): 1107 CPM; Antibody response to hepatitis B surface antigen ([2]; 100 µg adjuvant, day 14): 537 CPM; Antibody response to hepatitis B surface antigen ([2]; 100 µg adjuvant, day 28): 19679 CPM; Antibody response to hepatitis B surface antigen ([2]; 100 µg adjuvant, day 35): 13427 CPM; Anti-peptide antibody concentration ([3]; 10 µg adjuvant, day 7): 1.61 µg/mL; Anti-peptide antibody concentration ([3]; 10 µg adjuvant, day 14): 3.15 µg/mL; Anti-peptide antibody concentration ([3]; 10 µg adjuvant, day 21): 1.49 µg/mL; Anti-peptide antibody concentration ([3]; 10 µg adjuvant, day 28): 85.9 µg/mL; Anti-peptide antibody concentration ([3]; 10 µg adjuvant, day 35): 131.9 µg/mL; Anti-peptide antibody concentration ([3]; 50 µg adjuvant, day 7): 1.18 µg/mL; Anti-peptide antibody concentration ([3]; 50 µg adjuvant, day 14): 0.75 µg/mL; Anti-peptide antibody concentration ([3]; 50 µg adjuvant, day 21): 2.99 µg/mL; Anti-peptide antibody concentration ([3]; 50 µg adjuvant, day 28): 54.2 µg/mL; Anti-peptide antibody concentration ([3]; 50 µg adjuvant, day 35): 86.2 µg/mL; Anti-peptide antibody concentration ([3]; 100 µg adjuvant, day 7): 0.87 µg/mL; Anti-peptide antibody concentration ([3]; 100 µg adjuvant, day 14): 1.65 µg/mL; Anti-peptide antibody concentration ([3]; 100 µg adjuvant, day 21): 2.04 µg/mL; Anti-peptide antibody concentration ([3]; 100 µg adjuvant, day 28): 155.3 µg/mL; Anti-peptide antibody concentration ([3]; 100 µg adjuvant, day 35): 138.0 µg/mL; IgE, radioactivity of bound isotype antibody ([4]; day of bleed 14): 33±10 cpm; IgG1, radioactivity of bound isotype antibody ([4]; day of bleed 14): 568±32 cpm; IgG2a, radioactivity of bound isotype antibody ([4]; day of bleed 14): 483±44 cpm; IgG2b, radioactivity of bound isotype antibody ([4]; day of bleed 14): 290±31 cpm; IgG3, radioactivity of bound isotype antibody ([4]; day of bleed 14): 144±19 cpm; IgM, radioactivity of bound isotype antibody ([4]; day of bleed 14): 347±37 cpm; IgE, radioactivity of bound isotype antibody ([4]; day of bleed 35): 55±33 cpm; IgG1, radioactivity of bound isotype antibody ([4]; day of bleed 35): 8030±155 cpm; IgG2a, radioactivity of bound isotype antibody ([4]; day of bleed 35): 12331±336 cpm; IgG2b, radioactivity of bound isotype antibody ([4]; day of bleed 35): 4710±115 cpm; IgG3, radioactivity of bound isotype antibody ([4]; day of bleed 35): 333±17 cpm; IgM, radioactivity of bound isotype antibody ([4]; day of bleed 35): 826±8 cpm; IgE, radioactivity of bound isotype antibody ([4]; day of bleed 42): 29±12 cpm; IgG1, radioactivity of bound isotype antibody ([4]; day of bleed 42): 6176±496 cpm; IgG2a, radioactivity of bound isotype antibody ([4]; day of bleed 42): 2271±215 cpm; IgG2b, radioactivity of bound isotype antibody ([4]; day of bleed 42): 1109±77 cpm; IgG3, radioactivity of bound isotype antibody ([4]; day of bleed 42): 165±24 cpm; IgM, radioactivity of bound isotype antibody ([4]; day of bleed 42): 545±87 cpm; levels of IgE antibodies ([4]; in words, compared to the control without adjuvant): no significant increase; Antibody response to hepatitis B surface antigen ([5]; 10 µg adjuvant): 342 CPM; Antibody response to hepatitis B surface antigen ([5]; 50 µg adjuvant): 4000 CPM; Antibody response to hepatitis B surface antigen ([5]; 100 µg adjuvant): 1279 CPM; toxicity in animals [6]: non-toxic
